The test system of series [1] is normal cells (blood cells from healthy donors). The series is described as follows: Annexin-V/PI cell death of normal cells / blood cells from healthy donors under low-serum stress. The conditions noted are these: 24 hours, increasing concentrations, blood cells from healthy donors (FIG. 1). In kind it is cell-based. The protocol: (§1) The indicated cell lines or blood cells from healthy donors were treated for 24 hours in a 37° C. incubator (5% CO2) with increasing concentrations of the Antp-AAC-11-LZ (377-399) before Annexin-V and PI staining. The percentages refer to Annexin-V-positive or Annexin-V-positive/PI-positive staining.
(§2) Detection of phosphatidylserine on apoptotic cells was performed by using an AnnexinV/propidium iodide (PI) detection kit (Beckman Coulter, Immunotech, Marseille, France) according to the manufacturer. Briefly, 5×10^5 cells were incubated in the dark at 4° C. with Annexin V-fluorescein isothiocyanate (FITC) and 2.5 μg/mL PI in phosphate buffer for 10 minutes before 18 000 ungated events were collected within the hour by flow cytometry (FACScalibur, BD Biosciences, Mansfield, Mass.) and analyzed with the ProCellQuest software provided by the manufacturer. In HIV-1 infection assays (see below), cell viability was determined with the help of LIVE/DEAD® Fixable Aqua stain kit as recommended by the manufacturer (Molecular Probes, Life Technologies, Saint Aubin, France).

The subject of a further series is SIVmac251. In kind it is cell-based, SIVmac. Conditions: increasing amounts of peptide, three days, macaque CD4+ T cells (FIG. 4B).
The next series has as its system VSV-G HIV-1-particles. In kind it is cell-based.
The subject of series [2] is HIV-1 BaL. In kind it is cell-based. The conditions noted are these: three days; for HIV-1 replication (p24 antigen in supernatants) / elimination of HIV infected CD4+ T cells: 6 μM peptide, HIV-1 BaL, CD4+ T cells (FIG. 3); for HIV-1 replication (p24 antigen in supernatants) / elimination of HIV infected human CD4+ T cells: increasing amounts of peptide, HIV-1BaL, human CD4+ T cells (FIG. 4A upper panel).

Another series has as its system HIV-1BX08. It is filed as cell-based. The conditions noted are these: increasing amounts of peptide, three days, primary strain HIV-1BX08, human CD4+ T cells (FIG. 4A bottom panel).
For another series, the system named is cancer cells. The series is described as follows: Annexin-V/PI cell death of cancer cell lines under low-serum stress. It is filed as cell-based. Conditions: 24 hours, increasing concentrations (FIG. 1). The protocol:
as §1, §2

Series [3] relates to HIV-1 BaL. It is filed as cell-based. The conditions noted are these: 4 or 8 μM; added 10 minutes before infection and washed after two hours, or added two hours after infection and kept three days (FIG. 6).

As for “Ac-RQIKIWFKKQNRRMKWKKLQYFARGLQVYIRQLRLALQGKT-NH2 [RT39]”, in series [1], the “cell death (Annexin-V-positive or Annexin-V-positive/PI-positive staining) of normal cells” value is listed as “but not normal cells”. The “SIVmac251 replication (p27 antigen in supernatants) / elimination of SIVmac infected macaque CD4+ T cells” value with SIVmac251 is on record as “induce the selective elimination”. For the same substance, the “percentage of GFP+ (infected) cells and of viable cells / elimination of HIV infected CD4+ T cells” value in the series on VSV-G HIV-1-particles is recorded as “induce the selective elimination”. In the series on HIV-1 BaL [2], the “HIV-1 replication (p24 antigen in supernatants) / elimination of HIV infected CD4+ T cells” value is on record as “induce the selective elimination” and the “HIV-1 replication (p24 antigen in supernatants) / elimination of HIV infected human CD4+ T cells” value is reported as “induce the selective elimination”. Further, the “HIV-1 replication (p24 antigen in supernatants) / elimination of HIV infected human CD4+ T cells” value in the series on HIV-1BX08 is recorded as “induce the selective elimination”. Further, the “cell death (Annexin-V-positive or Annexin-V-positive/PI-positive staining) of cancer cells” value in the series with cancer cells is given as “induced cancer cells”.
For the substance “RQIKIWFKKQNRRMKWKKAKLNAEKLKDFKIRLQYFARGLQVYIRQLRLALQGKT (Synthetic Antp-AAC-11-LZ (363-399) (RT53))”, the “SIVmac251 replication (p27 antigen in supernatants) / elimination of SIVmac infected macaque CD4+ T cells” value in the series on SIVmac251 is “induce the selective elimination”. Besides, the “percentage of GFP+ (infected) cells and of viable cells / elimination of HIV infected CD4+ T cells” value in the series on VSV-G HIV-1-particles is on record as “induce the selective elimination”. Also, in the series on HIV-1 BaL [2], the “HIV-1 replication (p24 antigen in supernatants) / elimination of HIV infected CD4+ T cells” value is “induce the selective elimination” and the “HIV-1 replication (p24 antigen in supernatants) / elimination of HIV infected human CD4+ T cells” value is given as “induce the selective elimination”. Also, the “HIV-1 replication (p24 antigen in supernatants) / elimination of HIV infected human CD4+ T cells” value in the series with HIV-1BX08 was “induce the selective elimination”. Further, the “HIV-1 infection of human macrophages” value with HIV-1 BaL [3] is “block HIV-1 infection in human macrophages”.
Regarding “RQIKIWFKKQNRRMKWKKYFARGLQVYIRQL (Synthetic Antp-AAC-11-LZ (379-391) (RL29))”, the “HIV-1 replication (p24 antigen in supernatants) / elimination of HIV infected CD4+ T cells” value in the series on HIV-1 BaL [2] is given as “induce the selective elimination”.

For the origin of these results see US10463713B2, “Use of AAC-11 inhibitors for the treatment of viral infection” (INSERM (Institut National de la Sante et de la Recherche …, priority 2016, dated 2019).
